Measurements: PubChem BioAssay AID256 (DTP/NCI, 2004)
Values joined by “and” are separate entries in the source; they are usually repeats but may differ in a detail not shown here. Equal entries are not always repeated. Toxic doses and inconclusive results are not listed. How the source made its calls: active means survival T/C of 150% or more; inactive means T/C below 125% in these data.

Test system: CD2F1 mice, L1210 leukemia ip, survival T/C
Test: NCI In Vivo Anticancer Drug Screen. Data for tumor model L1210 Leukemia (intraperitoneal) in CD2F1 (CDF1) mice
Conditions: higher = longer survival
Procedure, shortened: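 Transplantable tumor in mice; compound-treated vs vehicle-treated groups. Read-out = treated/control ratio of the measured endpoint.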

[1] = endpoint: mean survival time, dose: 200.0 mg/kg/injection, schedule: Q04DX003 (ip), vehicle: other
[2] = endpoint: mean survival time, dose: 100.0 mg/kg/injection, schedule: Q04DX002 (ip), vehicle: saline with Tween-80
[3] = endpoint: mean survival time, dose: 200.0 mg/kg/injection, schedule: Q04DX002 (ip), vehicle: saline with Tween-80
[4] = endpoint: mean survival time, dose: 25.0 mg/kg/injection, schedule: Q01DX009 (ip), vehicle: water
[5] = endpoint: mean survival time, dose: 50.0 mg/kg/injection, schedule: Q01DX009 (ip), vehicle: water
[6] = endpoint: mean survival time, dose: 100.0 mg/kg/injection, schedule: Q01DX009 (ip), vehicle: water
[7] = endpoint: mean survival time, dose: 200.0 mg/kg/injection, schedule: Q01DX009 (ip), vehicle: water
[8] = endpoint: mean survival time, dose: 100.0 mg/kg/injection, schedule: Q04DX003 (ip), vehicle: saline with Tween-80
[9] = endpoint: mean survival time, dose: 200.0 mg/kg/injection, schedule: Q04DX003 (ip), vehicle: saline with Tween-80
[10] = endpoint: mean survival time, dose: 12.5 mg/kg/injection, schedule: Q01DX009 (ip), vehicle: water
[11] = endpoint: mean survival time, dose: 100.0 mg/kg/injection, schedule: Q04DX003 (ip), vehicle: other
[12] = endpoint: mean survival time, dose: 400.0 mg/kg/injection, schedule: Q04DX002 (ip), vehicle: saline with Tween-80

Measured: T/C

O=S(=O)(O)O.[NH-]C1CCCCC1[NH-].[Pt+2] (stereo unspecified)
inactive: endpoint: mean survival time, dose: 0.04 mg/kg/injection, schedule: Q01DX009 (ip), vehicle: water 109 % of control | endpoint: mean survival time, dose: 0.05 mg/kg/injection, schedule: Q04DX003 (ip), vehicle: water 110 % of control | endpoint: mean survival time, dose: 0.32 mg/kg/injection, schedule: Q01DX001 (ip), vehicle: water 120 % of control | endpoint: mean survival time, dose: 0.63 mg/kg/injection, schedule: Q01DX001 (ip), vehicle: dextrose 124 % of control | endpoint: mean survival time, dose: 0.63 mg/kg/injection, schedule: Q04DX003 (oral), vehicle: water 96 % of control | endpoint: mean survival time, dose: 0.78 mg/kg/injection, schedule: Q04DX003 (ip), vehicle: dextrose 119 % of control | endpoint: mean survival time, dose: 1.2 mg/kg/injection, schedule: Q01DX009 (oral), vehicle: water 100 % of control | endpoint: mean survival time, dose: 1.25 mg/kg/injection, schedule: Q01DX001 (ip), vehicle: dextrose 119 % of control | endpoint: mean survival time, dose: 1.25 mg/kg/injection, schedule: Q01DX001 (oral), vehicle: water 98 % of control | endpoint: mean survival time, dose: 1.25 mg/kg/injection, schedule: Q04DX003 (oral), vehicle: water 98 % of control | endpoint: mean survival time, dose: 1.56 mg/kg/injection, schedule: Q04DX003 (ip), vehicle: saline with Tween-80 100 % of control | endpoint: mean survival time, dose: 2.4 mg/kg/injection, schedule: Q01DX009 (oral), vehicle: water 97 % of control | endpoint: mean survival time, dose: 2.5 mg/kg/injection, schedule: Q01DX001 (ip), vehicle: dextrose 124 % of control | endpoint: mean survival time, dose: 3.12 mg/kg/injection, schedule: Q04DX003 (ip), vehicle: saline with Tween-80 110 % of control | endpoint: mean survival time, dose: 5.0 mg/kg/injection, schedule: Q01DX001 (oral), vehicle: water 100 % of control | endpoint: mean survival time, dose: 10.0 mg/kg/injection, schedule: Q01DX001 (ip), vehicle: dextrose 109 % of control | endpoint: mean survival time, dose: 10.0 mg/kg/injection, schedule: Q04DX003 (oral), vehicle: water 98 % of control | endpoint: mean survival time, dose: 12.5 mg/kg/injection, schedule: Q04DX003 (ip), vehicle: dextrose 110 % of control | endpoint: mean survival time, dose: 12.5 mg/kg/injection, schedule: Q04DX003 (ip), vehicle: saline 93 % of control | endpoint: mean survival time, dose: 40.0 mg/kg/injection, schedule: Q01DX001 (oral), vehicle: water 109 % of control

OC(CC(O)(C(F)(F)F)C(F)(F)F)c1cccc(C(F)(F)F)c1 (stereo unspecified)
inactive: endpoint: mean survival time, dose: 132.0 mg/kg/injection, schedule: Q04DX003 (ip), vehicle: other 98 % of control | [1] 94 % of control | endpoint: mean survival time, dose: 300.0 mg/kg/injection, schedule: Q04DX003 (ip), vehicle: other 93 % of control

COC(=O)C1C(C(C)=O)C2C(=O)C3C(C(=O)OC)C(C(=O)OC)C3C(=O)C12 (stereo unspecified)
inactive: endpoint: mean survival time, dose: 25.0 mg/kg/injection, schedule: Q04DX002 (ip), vehicle: saline with Tween-80 93 % of control | endpoint: mean survival time, dose: 50.0 mg/kg/injection, schedule: Q04DX002 (ip), vehicle: saline with Tween-80 96 % of control | [2] 100 % of control | [3] 96 % of control

Nc1cc(NCc2ccco2)ncn1
inactive: endpoint: mean survival time, dose: 37.5 mg/kg/injection, schedule: Q01DX009 (ip), vehicle: Klucel (hydroxypropylcellulose) (HPC) 107 % of control | endpoint: mean survival time, dose: 75.0 mg/kg/injection, schedule: Q01DX009 (ip), vehicle: Klucel (hydroxypropylcellulose) (HPC) 97 % of control and 104 % of control

CC1(C)CC(O)(Cc2ccccc2)C(=O)c2ccccc21 (stereo unspecified)
inactive: [4] 95 % of control | [5] 92 % of control | [6] 95 % of control | [7] 95 % of control | endpoint: mean survival time, dose: 400.0 mg/kg/injection, schedule: Q01DX009 (ip), vehicle: water 97 % of control

CCOC(=O)C[n+]1ccc(C(=O)c2cc3ccccc3[nH]2)cc1
inactive: endpoint: mean survival time, dose: 100.0 mg/kg/injection, schedule: Q01DX001 (ip), vehicle: saline with Tween-80 97 % of control | endpoint: mean survival time, dose: 200.0 mg/kg/injection, schedule: Q01DX001 (ip), vehicle: saline with Tween-80 101 % of control | endpoint: mean survival time, dose: 400.0 mg/kg/injection, schedule: Q01DX001 (ip), vehicle: saline with Tween-80 93 % of control

N=Cc1c(O)n(-c2ccccc2)c(=O)n(-c2ccccc2)c1=O
inactive: [8] 94 % of control | [9] 94 % of control | endpoint: mean survival time, dose: 400.0 mg/kg/injection, schedule: Q04DX003 (ip), vehicle: saline with Tween-80 92 % of control

O=c1[nH]c(=O)n(C2CC(O)C(CO)O2)cc1/C=N/O (stereo unspecified)
inactive: endpoint: mean survival time, dose: 12.5 mg/kg/injection, schedule: Q01DX005 (ip), vehicle: distilled water + Tween-80 101 % of control | endpoint: mean survival time, dose: 25.0 mg/kg/injection, schedule: Q01DX005 (ip), vehicle: distilled water + Tween-80 103 % of control | endpoint: mean survival time, dose: 50.0 mg/kg/injection, schedule: Q01DX005 (ip), vehicle: distilled water + Tween-80 101 % of control | endpoint: mean survival time, dose: 100.0 mg/kg/injection, schedule: Q01DX005 (ip), vehicle: distilled water + Tween-80 98 % of control | endpoint: mean survival time, dose: 200.0 mg/kg/injection, schedule: Q01DX005 (ip), vehicle: distilled water + Tween-80 101 % of control

COc1ccc(C2NCCc3cc(OC)c(OC)cc32)cc1OC (stereo unspecified)
inactive: [10] 98 % of control | [4] 98 % of control | [5] 98 % of control | [6] 106 % of control

COc1cc(O)c(Cc2ccccc2O)c(O)c1C(=O)CCc1ccccc1
inactive: endpoint: mean survival time, dose: 1.25 mg/kg/injection, schedule: Q01DX009 (ip), vehicle: saline with Tween-80 105 % of control | endpoint: mean survival time, dose: 2.5 mg/kg/injection, schedule: Q01DX009 (ip), vehicle: saline with Tween-80 100 % of control | endpoint: mean survival time, dose: 5.0 mg/kg/injection, schedule: Q01DX009 (ip), vehicle: saline with Tween-80 97 % of control | endpoint: mean survival time, dose: 10.0 mg/kg/injection, schedule: Q01DX009 (ip), vehicle: saline with Tween-80 105 % of control | endpoint: mean survival time, dose: 20.0 mg/kg/injection, schedule: Q01DX009 (ip), vehicle: saline with Tween-80 100 % of control

COc1ccc(C(=O)C(O)c2ccccc2)cc1 (stereo unspecified)
inactive: [11] 97 % of control | [1] 92 % of control | endpoint: mean survival time, dose: 400.0 mg/kg/injection, schedule: Q04DX003 (ip), vehicle: other 92 % of control

CCCCOC(=O)c1ccc(NC(=O)Nc2cc([N+](=O)[O-])ccc2C)cc1
inactive: endpoint: mean survival time, dose: 50.0 mg/kg/injection, schedule: Q01DX009 (ip), vehicle: Klucel (hydroxypropylcellulose) (HPC) 101 % of control | endpoint: mean survival time, dose: 100.0 mg/kg/injection, schedule: Q01DX009 (ip), vehicle: Klucel (hydroxypropylcellulose) (HPC) 89 % of control | endpoint: mean survival time, dose: 200.0 mg/kg/injection, schedule: Q01DX009 (ip), vehicle: Klucel (hydroxypropylcellulose) (HPC) 104 % of control

NC(=O)NC(=O)c1cccc([N+](=O)[O-])c1
inactive: endpoint: mean survival time, dose: 100.0 mg/kg/injection, schedule: Q01DX009 (ip), vehicle: saline with Tween-80 104 % of control | [8] 97 % of control | endpoint: mean survival time, dose: 200.0 mg/kg/injection, schedule: Q01DX009 (ip), vehicle: saline with Tween-80 97 % of control | [9] 94 % of control

O=C(Nc1c[nH]c(=O)[nH]c1=O)C(Cl)Cl
inactive: [11] 109 % of control | [1] 94 % of control

CC1=CC(=O)[C@@H](O)[C@]2(C)[C@H]3[C@@]4(O)OC[C@]35[C@H]([C@@H](C)[C@H]4O)[C@@H](OC(=O)c3ccccc3)C(=O)O[C@@H]5C[C@@H]12
inactive: endpoint: mean survival time, dose: 0.25 mg/kg/injection, schedule: Q01DX009 (ip), vehicle: saline with Tween-80 105 % of control | endpoint: mean survival time, dose: 0.5 mg/kg/injection, schedule: Q01DX009 (ip), vehicle: saline with Tween-80 100 % of control | endpoint: mean survival time, dose: 1.0 mg/kg/injection, schedule: Q01DX009 (ip), vehicle: saline with Tween-80 100 % of control | endpoint: mean survival time, dose: 2.0 mg/kg/injection, schedule: Q01DX009 (ip), vehicle: saline with Tween-80 105 % of control

O=S(CCO)c1c(Cl)c(Cl)c(Cl)c(Cl)c1Cl (stereo unspecified)
inactive: [2] 94 % of control | [3] 94 % of control

COC(=O)CCCCCCCCCC(=O)OC
inactive: [2] 87 % of control | [3] 102 % of control | [12] 98 % of control

CCOC(=O)c1[nH]c(C2OC(CO)C(O)C2O)nc1O (stereo unspecified)
inactive: endpoint: median survival time, dose: 49.9 mg/kg/injection, schedule: Q01DX005 (ip), vehicle: saline 96 % of control | endpoint: median survival time, dose: 99.7 mg/kg/injection, schedule: Q01DX005 (ip), vehicle: saline 98 % of control | endpoint: median survival time, dose: 199.3 mg/kg/injection, schedule: Q01DX005 (ip), vehicle: saline 96 % of control

O=C(O)c1c(Cl)cccc1Br
inactive: [2] 95 % of control | [3] 95 % of control | [12] 98 % of control

COc1cc(C(=O)c2c(OC)cccc2C(=O)O)c(OC)cc1C
inactive: [10] 100 % of control | [4] 100 % of control | [5] 95 % of control | [6] 95 % of control | [7] 97 % of control
